Assay results reported in US10125125B2, “N-(heteroaryl)-sulfonamide derivatives useful as S100-inhibitors” (Active Biotech AB, priority 2013, dated 2018).

Biological target: biotinylated human S100A9 : rhRAGE-Fc interaction (Homo sapiens (Human), UniProt P06702)
Experiment: AlphaScreen inhibition assay, Biot-hS100A9:hRAGE-Fc (S100A9-RAGE inhibition assay)
Type: binding
Description: FIG. 1 is a schematic representation of an assay of the inhibition of the interaction between biotinylated human S100A9 and human RAGE-Fc using a small molecule S100A9 binder.
Inhibition Assay, Biot-hS100A9:hRAGE-Fc
The AlphaScreen (Amplified Luminescent Proximity Homogeneous Assay) contains two types of beads, Alpha Donor beads and Acceptor beads (PerkinElmer). Upon laser excitation at 680 nm a photosensitizer in the Donor bead converts ambient oxygen to a more excited singlet state. The singlet oxygen molecule diffuses (maximum 200 nm) to react with a thioxene derivative in the Acceptor bead and generates a chemiluminescence reaction. Fluorophores in the Acceptor bead subsequently emit light at 520-620 nm which can be detected in the EnVision® Multilabel plate Reader (PerkinElmer). The beads are light sensitive and all work with the beads is performed under subdued light conditions or using green filters on light sources (Roscolux Chroma Green #389, Rosco).
In the AlphaScreen Inhibition Assay described here, protein A (Staphylococcus aureus) conjugated Acceptor beads are used together with streptavidin coated Donor beads (Perkin Elmer 6760617M). The Acceptor beads are pre-incubated with Fc-tagged recombinant human RAGE (rhRAGE-Fc) allowing binding of the rhRAGE-Fc to protein A on the beads. Biotinylated human S100A9 (biot-hS100A9) is pre-incubated with the low molecular test compounds. The pre-mixes are then added to the wells of a micro-plate and incubated allowing interaction between biot-hS100A9 and rhRAGE-Fc. Subsequent addition of streptavidin coated Donor beads causes binding of the streptavidin to the biotinylated hS100A9. After an additional incubation the signal is measured.
Without inhibitory compounds, the interaction of biot-hS100A9 to rhRAGE-Fc will bring the Acceptor and Donor beads in close proximity thus generating a high signal. With an inhibitor present the complex will not form resulting in a decreased signal.
Chemicals and reagents. • AlphaScreen® General IgG (Protein A) Detection Kit, (PerkinElmer 6760617M) • HBS-P buffer (GE Healthcare, BR-1003-68) • HBS-N buffer (GE Healthcare, BR-1003-69) • CaCl2 in HBS-P • ZnCl2 in Milli-Q water • DMSO • Biotinylated hS100A9, (biotinylated via cystein by EZ-link Iodoacetyl-PEG2-Biotin reagent (Pierce no. 21334), in HBS-N • rhRAGE-Fc (R&D Systems, 1145-RG-50), in HBS-P
The AlphaScreen assay method is used for screening of the inhibitory effect of different compound samples at fixed concentrations or for IC50 determination by varying the compound concentrations. Samples of test compounds and references are prepared from solutions in DMSO. Relevant reference inhibitors and DMSO are used as controls for defined inhibition and non-inhibition, respectively in the assay. The percent inhibition in assay for test compounds and references are calculated by comparing their obtained assay signals with the signal values for the control with only DMSO (no compound).
Assay concentration of biotinylated hS100A9 and rhRAGE-Fc are batch dependent, and are determined and defined by separate cross-titration experiments using this AlphaScreen inhibition method to verify the optimal setup regarding signal strength and achievement of a defined inhibition with relevant reference compounds. The Final assay concentrations of Acceptor and Donor beads are 20 μg/mL.
Experimental Set Up for Screening, Preparation of Solutions and Beads.
Assay buffer is prepared by adding CaCl2 and ZnCl2 to HBS-P and is used freshly prepared in the experiment.
Biotin-hS100A9 solution for the experiment is prepared by dilution of appropriate amount of stock solution biot-hS100A9 in assay buffer (with CaCl2 and ZnCl2) and incubation in room temperature for 30 minutes.
rhRAGE-Fc solution for the experiment is prepared by dilution appropriate amount of rhRAGE-Fc stock in assay buffer.
Protein A Acceptor beads are diluted in assay buffer and are added to an equal volume of the prepared diluted rhRAGE-Fc solution.

Chain of biotinylated human S100A9 : rhRAGE-Fc interaction (P06702 whole entry): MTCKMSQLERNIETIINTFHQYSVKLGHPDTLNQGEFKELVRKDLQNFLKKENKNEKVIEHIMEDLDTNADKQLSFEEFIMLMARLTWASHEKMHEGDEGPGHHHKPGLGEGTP

Compound | IC50 [µM]
O=S(=O)(Nc1cnccc1O)c1cc(Cl)sc1Cl [Example 63, 2,5-dichloro-N-(4-hydroxypyridin-3-yl)thiophene-3-sulfonamide] | 4.6
O=S(=O)(Nc1nnc(Cl)cc1O)c1cc(Cl)sc1Cl [Example 113, 2,5-dichloro-N-(6-chloro-4-hydroxypyridazin-3-yl)thiophene-3-sulfonamide] | 2
CCS(=O)(=O)c1cnc(NS(=O)(=O)Cc2cccc(Cl)c2)c(O)n1 [Example 88, 1-(3-chlorophenyl)-N-[5-(ethanesulfonyl)-3-hydroxypyrazin-2-yl]methane-sulfonamide] | > 1
CCS(=O)(=O)c1cc(O)c(NS(=O)(=O)Cc2cc(Cl)cc(Cl)c2)nn1 [Example 111, 1-(3,5-dichlorophenyl)-N-[6-(ethanesulfonyl)-4-hydroxypyridazin-3-yl]methanesulfonamide] | 0.1
COc1ncc(S(=O)(=O)Nc2cnc(C(F)(F)F)cc2O)cc1Br [Example 137, 5-bromo-N-[4-hydroxy-6-(trifluoromethyl)pyridin-3-yl]-6-methoxypyridine-3-sulfonamide] | 1.8
N#Cc1cnc(NS(=O)(=O)Cc2cc(Cl)cc(Cl)c2)c(O)n1 [Example 103, N-(5-cyano-3-hydroxypyrazin-2-yl)-1-(3,5-dichlorophenyl)methanesulfonamide] | < 1
O=S(=O)(Nc1cncc(Cl)c1O)c1cc(Cl)cc(Cl)c1 [Example 89, 3,5-dichloro-N-(5-chloro-4-hydroxypyridin-3-yl)benzene-1-sulfonamide] | 2.1
COc1ncc(S(=O)(=O)Nc2nnc(Cl)cc2O)cc1Br [Example 114, 5-bromo-N-(6-chloro-4-hydroxypyridazin-3-yl)-6-methoxypyridine-3-sulfonamide] | 1
O=S(=O)(Cc1cc(Cl)cc(Cl)c1)Nc1cc(Cl)c(Cl)nc1O [Example 173, N-(5,6-dichloro-2-hydroxypyridin-3-yl)-1-(3,5-dichlorophenyl)methanesulfonamide] | < 1
CN(C)c1ncc(S(=O)(=O)Nc2ncc(Cl)cc2O)cc1S(C)(=O)=O [Example 136, N-(5-chloro-3-hydroxypyridin-2-yl)-6-(dimethylamino)-5-methanesulfonylpyridine-3-sulfonamide] | > 1
O=S(=O)(Cc1cnc(N2CCCC2)c(Cl)c1)Nc1ccc(Cl)nc1O [Example 185, N-(6-chloro-2-hydroxypyridin-3-yl)-1-[5-chloro-6-(pyrrolidin-1-yl)pyridin-3-yl]-methanesulfonamide] | < 1
CS(=O)(=O)c1cnc(NS(=O)(=O)Cc2cc(Cl)cc(Cl)c2)c(O)n1 [Example 112, 1-(3,5-dichlorophenyl)-N-(3-hydroxy-5-methanesulfonylpyrazin-2-yl)methane-sulfonamide] | 0.42
O=S(=O)(Nc1ncc(Cl)cc1O)c1ccc(C(F)(F)F)nc1 [Example 41, N-(5-chloro-3-hydroxypyridin-2-yl)-6-(trifluoromethyl)pyridine-3-sulfonamide] | > 1
CS(=O)(=O)c1cnc(NS(=O)(=O)c2cc(Cl)cc(Cl)c2)c(O)n1 [Example 159, 3,5-dichloro-N-(3-hydroxy-5-methanesulfonylpyrazin-2-yl)benzene-1-sulfonamide] | 1.8
O=S(=O)(Nc1nnc(C(F)(F)F)cc1O)c1cc(F)cc(Cl)c1 [Example 163, 3-chloro-5-fluoro-N-[4-hydroxy-6-(trifluoromethyl)pyridazin-3-yl]benzene-1-sulfonamide] | > 1
N#Cc1cc(CS(=O)(=O)Nc2ncc(Cl)cc2O)cs1 [Example 127, N-(5-chloro-3-hydroxypyridin-2-yl)-1-(5-cyanothiophen-3-yl)methanesulfonamide] | 1.11
N#Cc1nc(NS(=O)(=O)Cc2cc(Cl)cc(Cl)c2)c(O)cc1Cl [Example 130, N-(5-chloro-6-cyano-3-hydroxypyridin-2-yl)-1-(3,5-dichlorophenyl)methane-sulfonamide] | 0.39
O=S(=O)(Cc1cc(Cl)cc(Cl)c1)Nc1cncc(Br)c1O [Example 97, N-(5-bromo-4-hydroxypyridin-3-yl)-1-(3,5-dichlorophenyl)methanesulfonamide] | 3.8
O=S(=O)(Cc1cc(Cl)cc(Cl)c1)Nc1nc(C(F)(F)F)ncc1O [Example 157, 1-(3,5-dichlorophenyl)-N-[5-hydroxy-2-(trifluoromethyl)pyrimidin-4-yl]methane-sulfonamide] | < 1
O=S(=O)(Nc1nc(Cl)ncc1O)c1ccc(Cl)c(Cl)c1 [Example 144, 3,4-dichloro-N-(2-chloro-5-hydroxypyrimidin-4-yl)benzene-1-sulfonamide] | < 1
O=S(=O)(Cc1cccc(Cl)c1)Nc1nnc(Cl)cc1O [Example 96, N-(6-chloro-4-hydroxypyridazin-3-yl)-1-(3-chlorophenyl)methanesulfonamide] | 0.41
